Solubility in words and solubility data for 2 compounds are collected here from patent US9427402B2, “Preparation for improving solubility of poorly soluble drug” (Shionogi & Co. Ltd., priority 2010, dated 2016).

The data set in a line: Solubility evaluation of drugs (buffer solutions, 37° C., HPLC). The following applies: for solubility in words: acidic / neutral solvents, conclusion from Table 1; for solubility at 3 h: thermodynamic from solid. It is filed as physicochemical. Here is the method:
A solvent was added to a drug, and ultrasonic irradiation treatment was performed on the resulting solution. The solution was agitated for 3 hours at 37° C. After 3 hours, the sample was filtered with a 0.45 μm filter, and the concentration of the drug in the filtrate was measured by a HPLC method. The solvents used were 100 mM of a citrate buffer solution (pH 4), 100 mM of a phosphate buffer (pH 7) and 100 mM of carbonic acid buffer solution (pH 9).

Setting [1] is: aqueous buffer, 100 mM citrate buffer solution (pH 4), 37° C., 3 hours, read-out: Solubility pH 4.
The mark [2] stands for this setting: aqueous buffer, 100 mM phosphate buffer (pH 7), 37° C., 3 hours, read-out: Solubility pH 7.

Values after ≈ are worked out from the molar mass of the structure shown. Read-outs that look alike come from different tables or passages of the source.

The solubility is the dissolved amount per volume that the medium holds. With `CCCCCCO[C@@H](C)c1cccc(-c2csc(NC(=O)c3cc(Cl)c(/C=C(\C)C(=O)O)c(Cl)c3)n2)c1OC` [Compound C-3B, (S)-(E)-3-(2,6-dichloro-4-{4-[3-(1-hexyloxyethyl)-2-methyloxyphenyl]thiazole 2-ylcarbamoyl}phenyl)-2-methylacrylic acid], the solubility in words result is “poorly soluble in an acidic and a neutral solvents”. In addition, the solubility at 3 h (aqueous buffer, 100 mM carbonic acid buffer solution (pH 9), 37° C., 3 hours, read-out: Solubility pH 9) came out at 7.7 µg/mL (≈ 13 µM). The solubility at 3 h under setting [1] is no more than 0.0004 µg/mL. Further, the solubility at 3 h under setting [2] was no more than 0.0004 µg/mL. Moreover, the solubility at 3 h (buffer solution, 37 °C, pH 7, aqueous buffer, solvent with a pH of 7 or less, read-out: solubility in a solvent with a pH of 7 or less) is no more than 0.0004 µg/mL.
For the compound `COc1ccc2c(c1)c(CC(=O)O)c(C)n2C(=O)c1ccc(Cl)cc1` [Indomethacin, indomethacin, reference compound], the solubility in words result is given as “poorly soluble in an acidic solvent”. In addition, under setting [1], the solubility at 3 h turned out to be 0.5 µg/mL (≈ 1.4 µM). Also, the solubility at 3 h under setting [2] was 25 µg/mL (≈ 69.9 µM).
